{"source": "patent US20210299064A1", "about": "“METHOD OF TREATING PATIENTS WITH LENNOX-GASTAUT SYNDROME” (ZOGENIX INTERNATIONAL LIMITED, priority 2020, published 2021)", "key": {"LGS patients": {"test_system": "LGS patients", "settings": "cited from earlier work; for reduction in seizures associated with drops: 20 mg/kg/day"}, "[1]": {"test_system": "self-induced photosensitive seizures", "settings": "four cases; cited from earlier work"}, "[2]": {"test_system": "children and adults with Lennox-Gastaut syndrome (LGS)", "experiment": "Randomized, double-blind, placebo-controlled trial of adjunctive fenfluramine oral solution: seizure frequency from caregiver diary", "type": "in vivo, human", "settings": "for median reduction in monthly drop seizures: 2 week titration plus 12 week maintenance, placebo 7.8% (7.6% elsewhere in the source); for reduction from baseline of generalized tonic-clonic (GTC) seizures: placebo negative 3.7%, p less than 0.001; for reduction from baseline of tonic-atonic seizures: placebo 6.8%, p 0.0455; for proportion of subjects with a 25% or more reduction in monthly drop seizures: titration plus maintenance (week 0-14), placebo 31%, p 0.007", "procedure": "A randomized, double-blind, placebo-controlled trial was conducted to assess the effect of administering fenfluramine hydrochloride as an adjunctive therapy as an oral solution to children and adults with Lennox-Gastaut syndrome (LGS). The study assessed the effect of such administration on seizures experienced by the subjects.\nThe fenfluramine hydrochloride was supplied as an oral solution in concentrations of 1.25, 2.5, and 5 mg/mL. Subjects were randomized to receive 1 of 2 doses of fenfluramine hydrochloride (0.2 mg/kg/day, 0.8 mg/kg/day; maximum dose: 30 mg/day) or placebo. Study medication were administered twice a day (BID) in equally divided doses. (Note that subjects taking concomitant stiripentol [STP] were randomized to 0.5 mg/kg/day, maximum dose 20 mg/day, or equivalent volume of placebo. Subjects randomized to 0.5 mg/kg/day were included in analyses with the subjects randomized to 0.8 mg/kg/day not taking STP.)\nSeizures that result in a drop are defined as seizures involving the entire body, trunk, or head that led to a fall, injury, slumping in a chair, or the subject's head hitting a surface or that could have led to a fall or injury, depending on the patient's position at the time of the seizure.\nThe cohort included 263 randomized subjects from the United States, Canada, Europe, and Australia. 87 were randomized into 0.7 mg/kg/day of fenfluramine hydrochloride, 89 were randomized into 0.2 mg/kg/day of fenfluramine hydrochloride, and 87 were randomized into a placebo.\nThe administration was conducted for 20 weeks. There was a 4-week baseline, a 2-week titration, a 12-week maintenance, and a 2-week taper or transition period.\nThe 4-week Baseline Period consisted of the establishment of initial eligibility during a screening visit to include an assessment of cardiac parameters (ECG and ECHO), followed by an observation period where subjects were assessed for baseline seizure frequency based on recordings of daily seizure activity entered into a diary. Upon completion of the Baseline Period, subjects who qualified for the study were randomized (1:1:1) in a double-blind manner to receive 1 of 2 doses of fenfluramine hydrochloride (0.2 mg/kg/day, […]; maximum dose: 30 mg/day [or 0.5 mg/kg/day, maximum 20 mg/day, for subjects taking concomitant STP]) or placebo. Randomization was stratified by weight (<37.5 kilograms [kg], ≥37.5 kg) to ensure balance across treatment arms, and at least 25% of subjects will be in each weight group. All subjects were titrated to their blinded randomized dose over a 2-week Titration Period. Following titration, subjects continued treatment at their randomly assigned dose over a 12-week Maintenance Period. Total treatment time from the beginning of the Titration Period through the end of the Maintenance Period is 14 weeks. Subjects had ECG and ECHO assessments at weeks 6 and 14 during the Maintenance Period. At the end of the Maintenance Period (or early discontinuation), all subjects underwent a blinded 2-week taper or transition period (Post-Dosing Follow-Up) depending on whether they exit the study or are enrolled in Part 2, the long-term open-label extension, respectively.\n(§1) Change in seizure frequency was assessed as the drops between baseline and the combined Titration and Maintenance Periods (T+M). Also assessed was the proportion of subjects who achieve a ≥50% reduction from baseline in the frequency of seizures that result in drops. Also assessed was changes in the Clinical Global Impression—Improvement rating, as assessed by the Principal Investigator.\nPrimary Efficacy Analysis: The primary efficacy endpoint for Part 1 is the percent change in frequency of seizures that result in drops (DSF: drop seizure frequency) per 28 days between the T+M and Baseline periods in Cohort A. The DSF will be calculated from all available data collected during the Baseline and treatment periods without imputation. […]"}, "[3]": {"test_system": "child suffering pattern sensitivity-induced seizures", "settings": "one child, resistant to anticonvulsive treatment; cited from earlier work"}, "[4]": {"test_system": "children and adults with Lennox-Gastaut syndrome (LGS)", "experiment": "Same trial: Clinical Global Impression-Improvement (CGI-I) rating by the Principal Investigator", "type": "in vivo, human", "settings": "0.7 mg/kg/day; placebo 6.3%; p 0.0007", "source_text": "The diagnosing can also involve a clinician's impression of symptoms. As used herein, the term “clinician” includes not only medical and psychological professions such as physicians, psychologists, psychiatrists, and nurses, but also non-professionals who observe the patient, such as a family member who resides with the patient. In some cases, the clinician is a medical or psychological professional. […] Instead, the “impression of symptoms” includes, for example, the clinician's subjective assessment of whether the overall condition of the patient has improved, worsened, or remained constant. In some cases the clinician's impression of symptoms is collected using a Clinical Global Impression (CGI) rating scale, which can include the section about severity of illness (CGI-S), global improvement (CGI-I), and efficacy index (CGI-E). […] By comparing the numerical responses over time, an assessment of the effect of the administering can be determined.\nas §1, with “Investigator. […]” for “Investigator.”"}, "[5]": {"test_system": "children and adults with Lennox-Gastaut syndrome (LGS)", "experiment": "Same trial: safety (adverse events, ECG, ECHO)", "type": "in vivo, human"}, "[6]": {"test_system": "children with refractory epilepsy", "settings": "0.5 to 1 mg/kg/day; cited from earlier work"}, "[7]": {"settings": "0.7 mg/kg/day, listed as Fenfluramine"}}, "note": "Counter-ions that a name gives are not always drawn. Like-named read-outs stand apart in the source and are kept apart here.", "data": [{"smiles": "O=C(c1cccnc1-c1ccncc1)N1CCC(O)(Cc2ccccc2)CC1", "note": "[Soticlestat]", "values": [{"measurement": "reduction in drop seizures", "setting": "LGS patients; Takeda Pharmaceuticals 2020, not statistically significant", "value": 14.8, "unit": "%"}]}, {"smiles": "CCNC(C)Cc1cccc(C(F)(F)F)c1", "note": "(racemic) [fenfluramine, (RS)—N-ethyl-1-[3-(trifluoromethyl)phenyl]propan-2-amine]", "values": [{"measurement": "response of self-induced photosensitive seizures", "setting": "[1]", "value": "responded to treatment"}, {"measurement": "median reduction in monthly drop seizures", "setting": "[2]; 0.2 mg/kg/day, p 0.0915", "value": 14.2, "unit": "%"}, {"measurement": "reduction from baseline of generalized tonic-clonic (GTC) seizures", "setting": "[2]; 0.2 mg/kg/day", "value": 58.2, "unit": "%"}, {"measurement": "reduction from baseline of generalized tonic-clonic (GTC) seizures", "setting": "[2]; 0.2 mg/kg/day, listed as Fenfluramine", "value": 58, "unit": "%"}, {"measurement": "median reduction in monthly drop seizures", "setting": "[2]; 0.7 mg/kg/day, p 0.0012", "value": 26.5, "unit": "%"}, {"measurement": "Hodges-Lehmann EMD (estimated median difference) from placebo in frequency of seizures associated with a drop", "setting": "[2]; 0.7 mg/kg/day, p 0.0013", "value": 19.9, "unit": "%"}, {"measurement": "reduction from baseline of tonic-atonic seizures", "setting": "[2]; 0.7 mg/kg/day", "value": 46.7, "unit": "%"}, {"measurement": "reduction from baseline of tonic-atonic seizures", "setting": "[2]; [7]", "value": 47, "unit": "%"}, {"measurement": "reduction from baseline of tonic seizures", "setting": "[2]; 0.7 mg/kg/day, placebo 13.3%, p 0.0601", "value": 31.3, "unit": "%"}, {"measurement": "reduction from baseline of generalized tonic-clonic (GTC) seizures", "setting": "[2]; 0.7 mg/kg/day", "value": 45.7, "unit": "%"}, {"measurement": "reduction from baseline of generalized tonic-clonic (GTC) seizures", "setting": "[2]; [7]", "value": 46, "unit": "%"}, {"measurement": "proportion of subjects with a 25% or more reduction in monthly drop seizures", "setting": "[2]; 0.7 mg/kg/day", "value": 51.7, "unit": "%"}, {"measurement": "effect on self-induced pattern sensitivity-induced seizures", "setting": "[3]", "value": "successfully terminated these self-induced seizures"}, {"measurement": "proportion of patients much or very much improved, CGI-I Investigator Rating", "setting": "[4]", "value": 26.3, "unit": "%"}, {"measurement": "subjects with at least one serious treatment emergent adverse event (SAE)", "setting": "[5]; 0.7 mg/kg/day, placebo 4.6%", "value": 11.7, "unit": "%"}, {"measurement": "tolerability", "setting": "[5]; both doses, 14 weeks of treatment", "value": "generally well tolerated"}, {"measurement": "cases of valvular heart disease or pulmonary arterial hypertension", "setting": "[5]; both doses, ECHO monitoring", "value": "No cases of valvular heart disease or pulmonary arterial hypertension were observed"}, {"measurement": "effect on number of seizures", "setting": "[6]", "value": "reduction in the number of seizures"}]}, {"smiles": "C=C(C)[C@@H]1CCC(C)=C[C@H]1c1c(O)cc(CCCCC)cc1O", "note": "[cannabidiol]", "values": [{"measurement": "reduction in seizures associated with drops", "setting": "LGS patients; Devinksy 2018, p 0.005", "value": 21.6, "unit": "%"}, {"measurement": "reduction in seizures associated with drops", "setting": "LGS patients; Thiele 2018, p 0.0135", "value": 17.2, "unit": "%"}]}, {"smiles": "CCNC(C)Cc1cccc(C(F)(F)F)c1", "note": "(stereo not shown) [fenfluramine HCl, fenfluramine hydrochloride]", "values": [{"measurement": "median reduction in monthly drop seizures", "setting": "[2]; 0.2 mg/kg/day, p 0.0915", "value": 13.2, "unit": "%"}, {"measurement": "median reduction in monthly drop seizures", "setting": "[2]; 0.7 mg/kg/day, p 0.0012", "value": 26.5, "unit": "%"}, {"measurement": "proportion of subjects with a 25% or more reduction in monthly drop seizures", "setting": "[2]; 0.7 mg/kg/day", "value": 51.7, "unit": "%"}, {"measurement": "proportion of patients much or very much improved, CGI-I Investigator Rating", "setting": "[4]", "value": 26.3, "unit": "%"}]}]}
